The results in this text go back to US10227360B2, “Compounds for use as GPR120 agonists” (PIRAMAL ENTERPRISES LIMITED, priority 2014, dated 2019).

Molecules are shown by their SMILES.

GPR120L receptor, sequence (Q5NUL3 other isoform, or with tags, fused parts or gaps): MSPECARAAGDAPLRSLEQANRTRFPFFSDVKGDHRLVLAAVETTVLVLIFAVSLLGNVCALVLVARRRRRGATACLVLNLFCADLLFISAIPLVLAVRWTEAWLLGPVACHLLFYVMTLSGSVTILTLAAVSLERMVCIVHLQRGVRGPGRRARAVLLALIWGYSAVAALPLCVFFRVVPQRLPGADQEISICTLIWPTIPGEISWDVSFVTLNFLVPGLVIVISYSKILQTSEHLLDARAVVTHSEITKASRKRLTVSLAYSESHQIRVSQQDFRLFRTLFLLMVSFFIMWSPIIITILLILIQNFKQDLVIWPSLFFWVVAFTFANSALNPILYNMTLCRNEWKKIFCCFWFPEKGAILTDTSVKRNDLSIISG

The test has as its target GPR120L receptor (Homo sapiens (Human), UniProt Q5NUL3). Put plainly: Beta (β) arrestin 2 Interaction Assay (BRET assay), β-galactosidase enzyme fragment complementation. In kind it is cell-based. The settings on record: CHO-K1 cells stably expressing the GPR120L receptor; β-arrestin recruitment; 2 hours incubation. Here is the method:
Beta (β) arrestin 2 Interaction Assay (BRET assay) was performed using CHO-K1 cells stably expressing the GPR120L receptor using β-galactosidase (Beta gal) enzyme fragment complementation assay. The measurement of GPR120 activation upon agonist activation was directly provided by β-arrestin recruitment. One day before the β-arrestin 2 assay, CHO-K1 cells were seeded and incubated overnight at 37° C. in a 5% CO2 humidified atmosphere. Cells were treated with the test compounds in the various concentrations ranging from 30 μM to 1 nM and incubated for 2 hours for GPCR (GPR120) activation. Extent of Arrestin recruitment was measured by adding detection reagents for Beta gal complementation assay and was further incubated for 1 hour. The chemi-luminescent signal was detected on Polar Star (BMG Labtech). The dose-response curve was analyzed using Sigma Plot/Graph Pad. The EC50 (concentration of the test compounds where 50% of compounds' maximal activity is observed) values were calculated from the dose-response curve.
As a reminder, the EC50 is the concentration needed to bring the measured effect to its halfway point. High values mean a need for much substance, low ones an effect from little substance. The molecule `N#CC1(c2ccc(-c3ccc(F)cc3COc3ccc(CCCC(=O)O)cc3)s2)CC1` [Example 1, 4-(4-((2-(5-(1-Cyanocyclopropyl)thiophen-2-yl)-5-fluorobenzyl)oxy)phenyl)butanoic acid] yielded an EC50 of 10 to 500 nM.
To `N#CC1(c2ccc(-c3ccc(F)cc3COc3ccc(CCC(=O)O)cc3)s2)CC1` [Example 2, 3-(4-((2-(5-(1-Cyanocyclopropyl)thiophen-2-yl)-5-fluorobenzyl)oxy)phenyl)propanoic acid] belongs 500 to 5000 nM; to `CC1(c2ccc(-c3ccc(F)cc3COc3ccc(CCCC(=O)O)cc3)cc2)CC1` [Example 3, 4-(4-((4-Fluoro-4′-(1-methylcyclopropyl)-[1,1′-biphenyl]-2-yl)methoxy)phenyl)butanoic acid], 10 to 500 nM.
Under `N#CC1(c2ccc(-c3ccc(F)cc3COc3ccc(CCCC(=O)O)cc3)cc2)CC1` [Example 4, 4-(4-((4′-(1-Cyanocyclopropyl)-4-fluoro-[1,1′-biphenyl]-2-yl)methoxy)phenyl)butanoic acid] stands 10 to 500 nM.
Under `N#CC1(c2ccc(-c3ccc(F)cc3COc3ccc(CCC(=O)O)cc3)cc2)CC1` [Example 5, 3-(4-((4′-(1-Cyanocyclopropyl)-4-fluoro-[1,1′-biphenyl]-2-yl)methoxy)phenyl)propanoic acid] stands 10 to 500 nM; under `N#CC1(c2ccc(-c3ccc(F)cc3COc3ccc(CCC(=O)O)cc3)cn2)CC1` [Example 6, 3-(4-((2-(6-(1-Cyanocyclopropyl)pyridin-3-yl)-5-fluorobenzyl)oxy)phenyl)propanoic acid], 500 to 5000 nM; under `O=C(O)CCCc1ccc(OCc2cc(F)ccc2-c2ccc(C3CC3)cc2)cc1` [Example 7, 4-(4-((4′-Cyclopropyl-4-fluoro-[1,1′-biphenyl]-2-yl)methoxy)phenyl)butanoic acid], 10 to 500 nM.
For the molecule `O=C(O)CCCc1ccc(OCc2cc(F)ccc2-c2ccc3c(c2)CCC3)cc1` [Example 8, 4-(4-((2-(2,3-Dihydro-1H-inden-5-yl)-5-fluorobenzyl)oxy)phenyl)butanoic acid], the EC50 is 10 to 500 nM.
Under `O=C(O)CCCc1ccc(OCc2cc(F)ccc2-c2ccc3c(c2)CCCC3)cc1` [Example 9, 4-(4-((5-Fluoro-2-(5,6,7,8-tetrahydronaphthalen-2-yl)benzyl)oxy)phenyl)butanoic acid] stands 10 to 500 nM.
In turn, `O=C(O)CCCc1ccc(OCc2cc(F)ccc2-c2ccc3c(c2)CC3)cc1` [Example 10, 4-(4-((2-(Bicyclo[4.2.0]octa-1(6),2,4-trien-3-yl)-5-fluorobenzyl)oxy)phenyl)butanoic acid] returned an EC50 of 10 to 500 nM.
To `O=C(O)CCCc1ccc(OCc2cc(F)ccc2-c2ccc(C3CC3)s2)cc1` [Example 11, 4-(4-((2-(5-Cyclopropylthiophen-2-yl)-5-fluorobenzyl)oxy)phenyl)butanoic acid] belongs 10 to 500 nM.
To `O=C(O)CCCc1ccc(OCc2cc(F)ccc2-c2ccc(C3(O)CCC3)s2)cc1` [Example 12, 4-(4-((5-Fluoro-2-(5-(1-hydroxycyclobutyl)thiophen-2-yl)benzyl)oxy)phenyl)butanoic acid] belongs 500 to 5000 nM; to `O=C(O)CCc1ccc(OCc2cc(F)ccc2-c2ccc(C3COC3)cc2)cc1` [Example 13, 3-(4-((4-Fluoro-4′-(oxetan-3-yl)-[1,1′-biphenyl]-2-yl)methoxy)phenyl)propanoic acid], 5000 to 50000 nM.
To `O=C(O)CCc1ccc(OCc2cc(F)ccc2-c2ccc(C3(O)CCC3)cc2)cc1` [Example 14, 3-(4-((4-Fluoro-4′-(1-hydroxycyclobutyl)-[1,1′-biphenyl]-2-yl)methoxy)phenyl)propanoic acid] belongs 500 to 5000 nM.
In turn, `CC1(C)CCC=C1c1ccc(-c2ccc(F)cc2COc2ccc(CCC(=O)O)cc2)cc1` [Example 15, 3-(4-((4′-(5,5-Dimethylcyclopent-1-en-1-yl)-4-fluoro-[1,1′-biphenyl]-2-yl)methoxy)phenyl)propanoic acid] showed an EC50 of 5000 to 50000 nM.
To `O=C(O)CCCc1ccc(OCc2cc(F)ccc2-c2ccc(C3CCCCC3)cc2)cc1` [Example 16, 4-(4-((4′-Cyclohexyl-4-fluoro-[1,1′-biphenyl]-2-yl)methoxy)phenyl)butanoic acid] belongs 500 to 5000 nM; to `O=C(O)CCc1ccc(OCc2cc(F)ccc2-c2ccc(C3COC3)nc2)cc1` [Example 17, 3-(4-((5-Fluoro-2-(6-(oxetan-3-yl)pyridin-3-yl)benzyl)oxy)phenyl)propanoic acid], 5000 to 50000 nM.
For the molecule `N#CC1(c2ccc(-c3ccc(F)cc3COc3ccc(CCC(=O)O)nc3)cc2)CC1` [Example 18, 3-(5-((4′-(1-Cyanocyclopropyl)-4-fluoro-[1,1′-biphenyl]-2-yl)methoxy)pyridin-2-yl)propanoic acid], the EC50 fell in the range of 10 to 500 nM.
For `N#CC1(c2ccc(-c3ccncc3COc3ccc(CCCC(=O)O)cc3)cc2)CC1` [Example 19, 4-(4-((4-(4-(1-Cyanocyclopropyl)phenyl)pyridin-3-yl)methoxy)phenyl)butanoic acid], the EC50 fell in the range of 500 to 5000 nM.
Under `O=C(O)CCc1ccc(OCc2cc(F)ccc2-c2ccc3c(c2)CC3)cn1` [Example 20, 3-(5-((2-(Bicyclo[4.2.0]octa-1(6),2,4-trien-3-yl)-5-fluorobenzyl)oxy)pyridin-2-yl)propanoic acid] stands 500 to 5000 nM; under `N#CC1(c2ccc(-c3ncccc3COc3ccc(CCC(=O)O)cc3)cc2)CC1` [Example 21, 3-(4-((2-(4-(1-Cyanocyclopropyl)phenyl)pyridin-3-yl)methoxy)phenyl)propanoic acid], 5000 to 50000 nM.
Under `O=C(O)CCCc1ccc(OCc2cc(F)ccc2-c2ccc3c(c2)CCO3)cc1` [Example 22, 4-(4-((2-(2,3-Dihydrobenzofuran-5-yl)-5-fluorobenzyl)oxy)phenyl)butanoic acid] stands 10 to 500 nM.
`O=C(O)CCCc1ccc(OCc2cc(F)ccc2-c2cc3c(s2)CCCC3)cc1` [Example 23, 4-(4-((5-Fluoro-2-(4,5,6,7-tetrahydrobenzo[b]thiophen-2-yl)benzyl)oxy)phenyl)butanoic acid]: the EC50 is 10 to 500 nM.
Under `O=C(O)CCCc1ccc(OCc2cc(F)ccc2-c2cnc3c(c2)CCC3)cc1` [Example 24, 4-(4-((2-(6,7-Dihydro-5H-cyclopenta[b]pyridin-3-yl)-5-fluorobenzyl)oxy)phenyl)butanoic acid] stands 10 to 500 nM; under `C=C1CCCc2nc(-c3ccc(F)cc3COc3ccc(CCCC(=O)O)cc3)sc21` [Example 25, 4-(4-((5-Fluoro-2-(7-methylene-4,5,6,7-tetrahydrobenzo[d]thiazol-2-yl)benzyl)oxy)phenyl)butanoic acid], 500 to 5000 nM; under `O=C(O)CCCc1ccc(OCc2ccccc2-c2ccc3c(c2)CC3)cc1` [Example 26, 4-(4-((2-(Bicyclo[4.2.0]octa-1(6),2,4-trien-3-yl)benzyl)oxy)phenyl)butanoic acid], 10 to 500 nM.
Under `O=C(O)CCCc1ccc(OCc2ccccc2-c2ccc3c(c2)CCCC3)cc1` [Example 27, 4-(4-((2-(5,6,7,8-tetrahydronaphthalen-2-yl)benzyl)oxy)phenyl)butanoic acid] stands 10 to 500 nM; under `O=C(O)CCCc1ccc(OCc2cc(F)ccc2-c2ccc(C3CCC3)s2)cc1` [Example 28, 4-(4-((2-(5-Cyclobutylthiophen-2-yl)-5-fluorobenzyl)oxy)phenyl)butanoic acid], 10 to 500 nM; under `Cc1cc(-c2ccc(F)cc2COc2ccc(CCCC(=O)O)cc2)ccc1C1CC1` [Example 29, 4-(4-((4′-cyclopropyl-4-fluoro-3′-methyl-[1,1′-biphenyl]-2-yl)methoxy)phenyl)butanoic acid], 10 to 500 nM.
Consider `O=C(O)CCCc1ccc(OCc2cc(F)ccc2-c2ccc(C3CC3)nc2)cc1` [Example 30, 4-(4-((2-(6-Cyclopropylpyridin-3-yl)-5-fluorobenzyl)oxy)phenyl)butanoic acid], for which the EC50 lay in the range of 10 to 500 nM.
To `O=C(O)CCCc1ccc(OCc2cc(F)ccc2-c2cnc(C3CC3)nc2)cc1` [Example 31, 4-(4-((2-(2-Cyclopropylpyrimidin-5-yl)-5-fluorobenzyl)oxy)phenyl)butanoic acid] belongs 10 to 500 nM; to `O=C(O)CCCc1ccc(OCc2cc(F)ccc2-c2scnc2C2CC2)cc1` [Example 32, 4-(4-((2-(4-Cyclopropylthiazol-5-yl)-5-fluorobenzyl)oxy)phenyl)butanoic acid], 5000 to 50000 nM.
Under `O=C(O)CCCc1ccc(OCc2ccccc2-c2ccc3c(c2)CCC3)cc1` [Example 33, 4-(4-((2-(2,3-Dihydro-1H-inden-5-yl)benzyl)oxy)phenyl)butanoic acid] stands 10 to 500 nM; under `O=C(O)CCCc1ccc(OCc2cc(F)ccc2-c2ccc3c(c2)CCCC3=O)cc1` [Example 34, 4-(4-((5-Fluoro-2-(5-oxo-5,6,7,8-tetrahydronaphthalen-2-yl)benzyl)oxy)phenyl)butanoic acid], 500 to 5000 nM.
To `O=C(O)CCCc1ccc(OCc2cc(F)ccc2-c2ccc3c(c2)CCC=C3)cc1` [Example 35, 4-(4-((2-(7,8-Dihydronaphthalen-2-yl)-5-fluorobenzyl)oxy)phenyl)butanoic acid] belongs 10 to 500 nM; to `C=C1CCCc2cc(-c3ccc(F)cc3COc3ccc(CCCC(=O)O)cc3)ccc21` [Example 36, 4-(4-((5-Fluoro-2-(5-methylene-5,6,7,8-tetrahydronaphthalen-2-yl)benzyl)oxy)phenyl)butanoic acid], 10 to 500 nM; to `CC1=CCCc2cc(-c3ccc(F)cc3COc3ccc(CCCC(=O)O)cc3)ccc21` [Example 37], 500 to 5000 nM.
